Measured values published in the NIST ThermoML archive (doi:10.1016/j.jct.2006.12.017).
± gives the expanded uncertainty stated by the source.

Legend:
[1] = Liquid; for mass density: 101.33 kPa
[2] = refractive index (Na D-line) (dimensionless); conditions: 101.33 kPa, Liquid

Structure (SMILES) | mass density ([1]; 293.15 K) [kg/m3] | refractive index ([2]; 293.15 K) | other results
ClC(Cl)C(Cl)Cl [1,1,2,2-tetrachloroethane] | 1593 ± 3.6 | 1.494 ± 0.005 | vapor or sublimation pressure ([1]; 417.15 K): 95.23 ± 5 kPa
ClCCCl [1,2-dichloroethane] | 1252.9 ± 2.7 | 1.4196 ± 0.005 | vapor or sublimation pressure ([1]; 355.05 K): 95.23 ± 5 kPa
Cc1ccccc1C [1,2-dimethylbenzene] | 880.1 ± 1.9 |  | vapor or sublimation pressure ([1]; 415.35 K): 95.23 ± 5 kPa
Cc1cccc(C)c1 [1,3-dimethylbenzene] | 864.4 ± 1.7 | 1.4972 ± 0.005 | vapor or sublimation pressure ([1]; 410.15 K): 95.23 ± 5 kPa
Cc1ccc(C)cc1 [1,4-dimethylbenzene] | 861 ± 1.7 | 1.4858 ± 0.005 | vapor or sublimation pressure ([1]; 409.15 K): 95.23 ± 5 kPa
Cc1ccc(O)cc1 [4-methylphenol] |  |  | vapor or sublimation pressure ([1]; 472.85 K): 95.23 ± 5 kPa; refractive index ([2]; 298.15 K): 1.5391 ± 0.005
ClC(Cl)=C(Cl)Cl [tetrachloroethene] | 1625 ± 3.7 | 1.505 ± 0.005 | vapor or sublimation pressure ([1]; 392.05 K): 95.23 ± 5 kPa
ClC=C(Cl)Cl [trichloroethene] |  |  | mass density ([1]; 298.15 K): 1464 ± 3.3 kg/m3; vapor or sublimation pressure ([1]; 358.35 K): 95.23 ± 5 kPa; refractive index ([2]; 298.15 K): 1.4782 ± 0.005
